From patent publication US20220146526A1, “METHOD FOR EVALUATING SAMPLE, ANALYSIS METHOD, METHOD FOR DETECTING DEGRADED SAMPLE, MARKER FOR DETECTING DEGRADED BLOOD PLASMA SAMPLE, AND MARKER FOR DETECTING DEGRADED SERUM SAMPLE” (SHIMADZU CORPORATION, priority 2019, published 2022)

What was measured:
Format in all cases: physicochemical, human
[1] = LC/MS of blood plasma sample: time from blood collection to centrifugation (Table D); conditions: for Increase or decrease: detection intensity, after 12 hours vs 15 minutes; for Increase or decrease / Rate of increase or decrease: blood collection to centrifugation; for Rate of increase or decrease (second value, decrease) / Rate of increase or decrease (first value, increase): different from individual to individual, relative to 1 at 15 minutes, collection to centrifugation; for Rate of increase or decrease (second value, decrease): individuals with decrease; for Rate of increase or decrease (second value, decrease) / Rate of increase or decrease (first value, increase) / Rate of increase or decrease: after 12 hours; for Rate of increase or decrease (first value, increase): individuals with increase; for Rate of increase or decrease: detection intensity relative to 1 at 15 minutes
Method: (§1) At room temperature, 5 mL of blood from a healthy subject was taken into a blood-collecting vessel containing EDTA, and the blood-collecting vessel was inverted for mixing, then cooled, and allowed to stand at 4° C. Here, in order to investigate how the detection intensity of molecules contained in the sample was affected in a case where the time to cooling was set to 5 minutes or more as compared to that in a case where the time to cooling was set to 1 minute or less, preparations were performed under both the former condition and the latter condition. After standing, the blood sample was subjected to centrifugation under a condition of 4° C., 3000 rpm, and 15 minutes. […] After centrifugation, the blood-collecting vessel was left to stand at room temperature for 30 minutes, and the blood plasma was isolated during this 30 minutes. The obtained blood plasma sample was frozen and stored. Here, in order to investigate how the detection intensity of molecules contained in the sample was affected in cases where freezing and thawing was performed 4 times, 6 times, and 10 times after freezing as compared to that in a case where freezing and thawing was performed 2 times after freezing, freezing and thawing was performed under the respective conditions of 2, 4, 6, and 10 times.
(§2) Frozen blood plasma samples and serum samples were subjected to GC/MS or LC/MS. In GC/MS, the blood plasma samples and serum samples were subjected to methoxymation and trimethylsilylation and then introduced to GC-MS.
(§3) Analysis column: Discovery HS F5-3 (inner diameter of 2.1 mm, length of 150 mm, film thickness of 3 μm) (Sigma-Aldrich)
(§4) Column temperature: 40° C.
(§5) (A) 0.1% formic acid (dissolved in water)
(§6) (B) 0.1% formic acid (dissolved in acetonitrile)
(§7) Flow velocity: 0.25 mL/min
(§8) Ionization method: electrospray
(§9) Temperature: • Desolvation Line (DL) temperature: 250° C. • Heat block temperature: 400° C. • Interface temperature: 300° C.
(§10) Gas flow rate: • Nebulizer gas flow rate: 3.0 L/min • Drying gas flow rate: 10.0 L/min • Heating gas flow rate: 10.0 L/min
(§11) Mode: multiple reaction monitoring (MRM)
The rate of increase or decrease in Table D is the value of detection intensity relative to 1 that is the detection intensity in a case where the time from blood collection to centrifugation is set to 15 minutes.

[2] = LC/MS of serum sample: number of times of freezing and thawing (Table M); design: key to Rate of increase or decrease: detection intensity relative to 1 at 2 freeze-thaw cycles; conditions: for Number of times when compound is affected / Increase or decrease: serum sample, LC/MS; for Number of times when compound is affected: detection intensity changed by 30% or more vs 2 times of freezing and thawing; for Increase or decrease: detection intensity vs 2 times of freezing and thawing
In short: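 Serum was isolated at room temperature after centrifugation at room temperature, 3500 rpm, 5 minutes, then frozen and freeze-thawed 2, 4, 6 or 10 times. LC/MS used a Discovery HS F5-3 column at 40° C with formic acid water/acetonitrile, electrospray MRM. Intensity is relative to 2 freeze-thaw cycles.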

[3] = LC/MS of blood plasma sample: number of times of freezing and thawing (Table F); conditions: for Rate of increase or decrease: detection intensity relative to 1 at 2 times; for Increase or decrease: detection intensity
Method: as §1, §2, §3, §4, §5, §6, §7, §8, §9, §10, §11
The rate of increase or decrease in Table F is the value of detection intensity relative to 1 that is the detection intensity in a case where the number of times of freezing and thawing is set to 2 times.

[4] = LC/MS of serum sample: time from blood collection to centrifugation (Table J); conditions: for Rate of increase or decrease: detection intensity relative to 1 at 15 minutes; for Increase or decrease / Time when compound is affected: serum sample, LC/MS; for Increase or decrease: detection intensity vs 15 minutes from blood collection to centrifugation; for Time when compound is affected: time from blood collection to centrifugation, detection intensity changed by 30% or more vs 15 minutes
Method: After standing, the blood sample was subjected to centrifugation under a condition of room temperature, 3500 rpm, and 5 minutes. […] After centrifugation, the blood-collecting vessel was left to stand at room temperature, and the serum was isolated during this time. Here, in order to investigate how the detection intensity of molecules contained in the sample was affected in cases where the time during which the blood-collecting vessel was left at room temperature was set to 1 hour and 6 hours as compared to that in a case where the time was set to 30 minutes, preparations were performed under the respective conditions of 30 minutes, 1 hour, and 6 hours. The obtained serum sample was frozen and stored. Here, in order to investigate how the detection intensity of molecules contained in the sample was affected in cases where freezing and thawing was performed 4 times, 6 times, and 10 times after freezing as compared to that in a case where freezing and thawing was performed 2 times after freezing, freezing and thawing was performed under the respective conditions of 2, 4, 6, and 10 times.
as §2, §3, §4, §5, §6, §7, §8, §9, §10, §11
The rate of increase or decrease in Table J is the value of detection intensity relative to 1 that is the detection intensity in a case where the time from blood collection to centrifugation is set to 15 minutes.

[5] = GC/MS of serum sample: time from centrifugation to isolation (Table H); design: key to Rate of increase or decrease / Rate of increase or decrease (first value, increase): detection intensity relative to 1 at 30 min centrifugation-to-isolation
In short: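 Blood was centrifuged at room temperature, 3500 rpm, 5 min, and the vessel left at room temperature for 30 min, 1 h or 6 h before serum isolation. Serum was methoxymated, trimethylsilylated and analysed by GC/MS with electron ionization in MRM mode; intensities expressed relative to the 30-min condition (=1).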

[6] = GC/MS of serum sample: time from blood collection to centrifugation (Table G); conditions: blood collection to centrifugation
In short: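 Blood was held for varying times before centrifugation (room temperature, 3500 rpm, 5 min); serum was frozen, then methoxymated and trimethylsilylated for GC/MS with electron ionization in MRM mode. Values are detection intensities relative to the 15-minute collection-to-centrifugation condition, set as 1.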

[7] = GC/MS of serum sample: number of times of freezing and thawing (Table I); design: key to Rate of increase or decrease / Rate of increase or decrease (first value, increase): detection intensity relative to 2 freeze-thaw cycles = 1; conditions: serum, GC/MS
In short: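 Serum was isolated after centrifugation at room temperature (3500 rpm, 5 min), frozen, and put through 2, 4, 6 or 10 freeze–thaw cycles. Samples were methoxymated and trimethylsilylated, then run by electron-ionization GC/MS in MRM mode on a BPX5 column (60 to 330 °C). Detection intensity is given relative to the 2-cycle sample, set as 1.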

[8] = 6 times of freezing and thawing, detection intensity relative to 1 at 2 times
[9] = freezing and thawing 6 times vs 2 times
[10] = after 12 hours from blood collection to centrifugation
[11] = freezing and thawing 10 times vs 2 times
[12] = 4 times of freezing and thawing, detection intensity relative to 1 at 2 times

| Structure (SMILES) | Increase or decrease [1] | Rate of increase or decrease (second value, decrease) [1] | Rate of increase or decrease (first value, increase) [1] | Rate of increase or decrease [2, 8] | Number of times when compound is affected [2] | Increase or decrease [2] | Rate of increase or decrease [4, 10] | Increase or decrease [4] | Time when compound is affected [4] | Rate of increase or decrease ([3]; freezing and thawing 10 times) | Increase or decrease [3, 11] | further results |
| --- | --- | --- | --- | --- | --- | --- | --- | --- | --- | --- | --- | --- |
| NC(=O)NCCC[C@H](N)C(=O)O [Citrulline] | Decrease | – | – | 0.62 | 6 times | Decrease | – | – | – | 1.33 | Increase | Rate of increase or decrease [1]: 0.68 |
| Nc1ccccc1C(=O)CC(N)C(=O)O (stereo not drawn) [Kynurenine] | Different from individual | 0.66 | 1.85 | – | 4 times | Decrease | – | – | – | – | – | Rate of increase or decrease [2, 12]: 0.67; Rate of increase or decrease ([3]; freezing and thawing 6 times): 1.37; Increase or decrease [3, 9]: Increase |
| N[C@@H](CCC(=O)O)C(=O)O [Glutamic acid] | – | – | – | – | 10 times | Decrease | – | Increase | After 4 hours | 5.21 | Increase | Rate of increase or decrease ([4]; after 4 hours from blood collection to centrifugation): 3.09; Rate of increase or decrease ([2]; 10 times of freezing and thawing, detection intensity relative to 1 at 2 times): 0.63 |
| CN(CC(=O)O)C(=N)N [Creatine] | Different from individual | 0.66 | 1.67 | – | 4 times | Decrease | – | – | – | – | – | Rate of increase or decrease [2, 12]: 0.63; Rate of increase or decrease ([3]; freezing and thawing 4 times): 1.39; Increase or decrease ([3]; freezing and thawing 4 times vs 2 times): Increase |
| O=C(O)[C@@H]1CC(O)CN1 (stereo partly drawn) [4-Hydroxyproline] | Different from individual | 0.69 | 1.33 | 0.66 | 6 times | Decrease | – | – | – | 1.34 | Increase | Rate of increase or decrease ([5]; detection intensity relative to 1 at 30 minutes, after 1 hour): 1.33; Increase or decrease ([5]; detection intensity, after 1 hour vs 30 minutes): Increase; Rate of increase or decrease ([6]; detection intensity relative to 1 at 15 minutes, after 12 hours): 1.44; Increase or decrease ([6]; detection intensity, after 12 hours vs 15 minutes): Increase; Rate of increase or decrease ([7]; detection intensity relative to 1 at 2 times, freezing and thawing 4 times): 1.40; Increase or decrease ([7]; detection intensity, freezing and thawing 4 times vs 2 times): Increase |
| NC(=O)C[C@H](N)C(=O)O [Asparagine] | – | – | – | 0.66 | 6 times | Decrease | 1.40 | Increase | After 12 hours | 1.38 | Increase | – |
| N[C@@H](Cc1c[nH]cn1)C(=O)O [Histidine] | – | – | – | 0.61 | 6 times | Decrease | 1.46 | Increase | After 12 hours | 1.36 | Increase | – |
| NCC(=O)O [Glycine] | – | – | – | 0.69 | 6 times | Decrease | 1.50 | Increase | After 12 hours | – | Increase | – |

The next lines start with results.

| Increase or decrease [1] | Rate of increase or decrease (second value, decrease) [1] | Rate of increase or decrease (first value, increase) [1] | Rate of increase or decrease [2, 8] | Number of times when compound is affected [2] | Increase or decrease [2] | Rate of increase or decrease [4, 10] | Increase or decrease [4] | Time when compound is affected [4] | Rate of increase or decrease ([3]; freezing and thawing 10 times) | Increase or decrease [3, 11] | Structure (SMILES) | further results |
| --- | --- | --- | --- | --- | --- | --- | --- | --- | --- | --- | --- | --- |
| Different from individual | 0.64 | 1.57 | 0.67 | 6 times | Decrease | – | – | – | – | – | C[N+](C)(C)CC(O)CC(=O)[O-] (stereo not drawn) [Carnitine] | Rate of increase or decrease ([3]; freezing and thawing 6 times): 1.30; Increase or decrease [3, 9]: Increase |
| Decrease | – | – | 0.66 | 6 times | Decrease | 1.35 | Increase | After 12 hours | 1.35 | Increase | CC(C)C[C@H](N)C(=O)O [Leucine] | Rate of increase or decrease [1]: 0.69 |
| Different from individual | 0.64 | 1.41 | – | 6 times | Different from individual | – | – | – | 1.34 | Increase | C[C@H](N)C(=O)O [Alanine] | Rate of increase or decrease ([2]; 6 times of freezing and thawing, relative to 1 at 2 times, different from individual to individual, second value (decrease)): 0.63 |
| Different from individual | 0.68 | 1.78 | 0.55 | 6 times | Decrease | – | – | – | 1.31 | Increase | CN=C(NC)NCCC[C@H](N)C(=O)O [Symmetric dimethylarginine] | – |
